{"source": "paper PMC7914897", "about": "“Cytotoxic Potential of a-Azepano- and 3-Amino-3,4-SeCo-Triterpenoids” (International Journal of Molecular Sciences, 2021)", "key": {"[1]": {"tested_on": "NIH 3T3 (non-malignant mouse fibroblasts)", "experiment": "SRB cytotoxicity assay, 72 h", "assay_type": "cell-based", "details": "Mus musculus, NIH3T3; NIH 3T3, 72 h, cut-off 30 µM; read-out: EC50", "procedure,_shortened": "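Absorbance at 570 nm of SRB-stained cells gives % survival vs untreated controls, from which EC50 is determined. Treatment: 0–30 µM serial dilutions, 72 h, beginning 24 h post-seeding; DMSO ≤0.5%. TCA (10%) fixation, acetic acid wash.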"}, "[2]": {"tested_on": "CNS cancer subpanel", "experiment": "NCI-60 screen, subpanel", "details": "Homo sapiens"}, "[3]": {"tested_on": "Melanoma subpanel", "experiment": "NCI-60 screen, subpanel", "details": "Homo sapiens"}, "[4]": {"tested_on": "HOP-92 (NSC lung cancer)", "experiment": "NCI-60 screen (SRB, 48 h)", "details": "Homo sapiens"}, "[5]": {"tested_on": "NCI-H226 (NSC lung cancer)", "experiment": "NCI-60 screen (SRB, 48 h)", "details": "Homo sapiens"}, "[6]": {"tested_on": "NCI-H322M (NSC lung cancer)", "experiment": "NCI-60 screen (SRB, 48 h)"}, "[7]": {"tested_on": "COLO 205 (Colon cancer)", "experiment": "NCI-60 screen (SRB, 48 h)", "details": "Homo sapiens"}, "[8]": {"tested_on": "HCC-2998 (Colon cancer)", "experiment": "NCI-60 screen (SRB, 48 h)", "details": "Homo sapiens"}, "[9]": {"tested_on": "HCT-116 (Colon cancer)", "experiment": "NCI-60 screen (SRB, 48 h)", "details": "Homo sapiens"}, "[10]": {"tested_on": "HCT-15 (Colon cancer)", "experiment": "NCI-60 screen (SRB, 48 h)", "details": "Homo sapiens"}, "[11]": {"tested_on": "SW-620 (Colon cancer)", "experiment": "NCI-60 screen (SRB, 48 h)", "details": "Homo sapiens"}, "[12]": {"tested_on": "SF-295 (CNS cancer)", "experiment": "NCI-60 screen (SRB, 48 h)", "details": "Homo sapiens"}, "[13]": {"tested_on": "SNB-19 (CNS cancer)", "experiment": "NCI-60 screen (SRB, 48 h)", "details": "Homo sapiens"}, "[14]": {"tested_on": "SNB-75 (CNS cancer)", "experiment": "NCI-60 screen (SRB, 48 h)"}, "[15]": {"tested_on": "MALME-3M (Melanoma)", "experiment": "NCI-60 screen (SRB, 48 h)", "details": "Homo sapiens"}, "[16]": {"tested_on": "M14 (Melanoma)", "experiment": "NCI-60 screen (SRB, 48 h)", "details": "Homo sapiens"}, "[17]": {"tested_on": "UACC-257 (Melanoma)", "experiment": "NCI-60 screen (SRB, 48 h)", "details": "Homo sapiens"}, "[18]": {"tested_on": "OVCAR-5 (Ovarian cancer)", "experiment": "NCI-60 screen (SRB, 48 h)"}, "[19]": {"tested_on": "A498 (Renal cancer)", "experiment": "NCI-60 screen (SRB, 48 h)", "details": "Homo sapiens"}, "[20]": {"tested_on": "ACHN (Renal cancer)", "experiment": "NCI-60 screen (SRB, 48 h)"}, "[21]": {"tested_on": "SN12C (Renal cancer)", "experiment": "NCI-60 screen (SRB, 48 h)", "details": "Homo sapiens"}, "[22]": {"tested_on": "MCF7 (Breast cancer)", "experiment": "NCI-60 screen (SRB, 48 h)", "details": "Homo sapiens"}, "[23]": {"tested_on": "MDA-MB-31/ATCC (Breast cancer)", "experiment": "NCI-60 screen (SRB, 48 h)", "details": "Homo sapiens"}, "[24]": {"details": "Homo sapiens, 48 h, read-out: TGI"}}, "data": [{"smiles": "CC1(C)NCCC[C@]2(C)[C@H]3C=CC4=C5C[C@@](C)(CO)CC[C@]5(C)CC[C@@]4(C)[C@]3(C)CC[C@@H]12", "note": "[Compound 6, azepano-glycyrrhetol-diene]", "values": [{"measurement": "EC50", "setting": "[1]", "result": "11.7 ± 1.4", "unit": "µM"}, {"measurement": "IC (TGI)", "setting": "[2]; 48 h, read-out: TGI MG_MID", "result": 13.5, "unit": "µM"}, {"measurement": "GI50", "setting": "[2]; read-out: GI50 MG_MID", "result": 4.53, "unit": "µM"}, {"measurement": "CC50", "setting": "[2]; read-out: LC50 MG_MID", "result": 39.7, "unit": "µM"}, {"measurement": "IC (TGI)", "setting": "[3]; 48 h, read-out: TGI MG_MID", "result": 11.9, "unit": "µM"}, {"measurement": "GI50", "setting": "[3]; read-out: GI50 MG_MID", "result": 3.61, "unit": "µM"}, {"measurement": "CC50", "setting": "[3]; read-out: LC50 MG_MID", "result": 36, "unit": "µM"}, {"measurement": "GI50", "setting": "[4]; HOP-92", "result": 3.1, "unit": "µM"}, {"measurement": "IC (TGI)", "setting": "[4]; HOP-92, 48 h, read-out: TGI", "result": 14.6, "unit": "µM"}, {"measurement": "CC50", "setting": "[4]; HOP-92, read-out: LC50", "result": 47, "unit": "µM"}, {"measurement": "GI50", "setting": "[5]; NCI-H226", "result": 4, "unit": "µM"}, {"measurement": "IC (TGI)", "setting": "[5]; NCI-H226, 48 h, read-out: TGI", "result": 16.9, "unit": "µM"}, {"measurement": "CC50", "setting": "[5]; NCI-H226, read-out: LC50", "result": 82.2, "unit": "µM"}, {"measurement": "Growth % of the Most Sensitive Cell Lines", "setting": "[6]; 1 dose 10 µM", "result": "−99.73", "unit": "%"}, {"measurement": "GI50", "setting": "[6]; Homo sapiens", "result": 4.78, "unit": "µM"}, {"measurement": "IC (TGI)", "setting": "[6]; [24]", "result": 16.9, "unit": "µM"}, {"measurement": "CC50", "setting": "[6]; Homo sapiens, read-out: LC50", "result": 42.1, "unit": "µM"}, {"measurement": "GI50", "setting": "[7]; COLO 205", "result": 3.63, "unit": "µM"}, {"measurement": "IC (TGI)", "setting": "[7]; COLO 205, 48 h, read-out: TGI", "result": 13.9, "unit": "µM"}, {"measurement": "CC50", "setting": "[7]; COLO 205, read-out: LC50", "result": 43, "unit": "µM"}, {"measurement": "GI50", "setting": "[8]; HCC 2998", "result": 10.1, "unit": "µM"}, {"measurement": "IC (TGI)", "setting": "[8]; HCC 2998, 48 h, read-out: TGI", "result": 23, "unit": "µM"}, {"measurement": "CC50", "setting": "[8]; HCC 2998, read-out: LC50", "result": 52.3, "unit": "µM"}, {"measurement": "GI50", "setting": "[9]; HCT-116", "result": 2730, "unit": "nM"}, {"measurement": "IC (TGI)", "setting": "[9]; HCT-116, 48 h, read-out: TGI", "result": 10.6, "unit": "µM"}, {"measurement": "CC50", "setting": "[9]; HCT-116, read-out: LC50", "result": 52.9, "unit": "µM"}, {"measurement": "GI50", "setting": "[10]; HCT-15", "result": 4.21, "unit": "µM"}, {"measurement": "IC (TGI)", "setting": "[10]; HCT-15, 48 h, read-out: TGI", "result": 16.4, "unit": "µM"}, {"measurement": "CC50", "setting": "[10]; HCT-15, read-out: LC50", "result": 45.4, "unit": "µM"}, {"measurement": "GI50", "setting": "[11]; SW-620", "result": 5.76, "unit": "µM"}, {"measurement": "IC (TGI)", "setting": "[11]; SW-620, 48 h, read-out: TGI", "result": 18.8, "unit": "µM"}, {"measurement": "CC50", "setting": "[11]; SW-620, read-out: LC50", "result": 47, "unit": "µM"}, {"measurement": "GI50", "setting": "[12]; SF-295", "result": 2000, "unit": "nM"}, {"measurement": "IC (TGI)", "setting": "[12]; SF-295, 48 h, read-out: TGI", "result": 4.04, "unit": "µM"}, {"measurement": "CC50", "setting": "[12]; SF-295, read-out: LC50", "result": 8.15, "unit": "µM"}, {"measurement": "GI50", "setting": "[13]; SNB-19", "result": 11.6, "unit": "µM"}, {"measurement": "IC (TGI)", "setting": "[13]; SNB-19, 48 h, read-out: TGI", "result": 25.3, "unit": "µM"}, {"measurement": "CC50", "setting": "[13]; SNB-19, read-out: LC50", "result": 55.2, "unit": "µM"}, {"measurement": "GI50", "setting": "[14]; Homo sapiens, SNB-75", "result": 3.43, "unit": "µM"}, {"measurement": "IC (TGI)", "setting": "[14]; Homo sapiens, SNB-75, 48 h, read-out: TGI", "result": 14.8, "unit": "µM"}, {"measurement": "CC50", "setting": "[14]; Homo sapiens, SNB-75, read-out: LC50", "result": 46.5, "unit": "µM"}, {"measurement": "Growth % of the Most Sensitive Cell Lines", "setting": "[14]; SNB-75, 1 dose 10 µM", "result": "−97.70", "unit": "%"}, {"measurement": "GI50", "setting": "[15]", "result": 2640, "unit": "nM"}, {"measurement": "IC (TGI)", "setting": "[15]; 48 h, read-out: TGI", "result": 8.01, "unit": "µM"}, {"measurement": "CC50", "setting": "[15]; read-out: LC50", "result": 32.5, "unit": "µM"}, {"measurement": "GI50", "setting": "[16]; M14", "result": 3.91, "unit": "µM"}, {"measurement": "IC (TGI)", "setting": "[16]; M14, 48 h, read-out: TGI", "result": 14.8, "unit": "µM"}, {"measurement": "CC50", "setting": "[16]; M14, read-out: LC50", "result": 41.5, "unit": "µM"}, {"measurement": "GI50", "setting": "[17]; UACC-257", "result": 5.24, "unit": "µM"}, {"measurement": "IC (TGI)", "setting": "[17]; UACC-257, 48 h, read-out: TGI", "result": 17, "unit": "µM"}, {"measurement": "CC50", "setting": "[17]; UACC-257, read-out: LC50", "result": 43.8, "unit": "µM"}, {"measurement": "GI50", "setting": "[18]; Homo sapiens, OVCAR-5", "result": 1240, "unit": "nM"}, {"measurement": "IC (TGI)", "setting": "[18]; Homo sapiens, OVCAR-5, 48 h, read-out: TGI", "result": 25.3, "unit": "µM"}, {"measurement": "CC50", "setting": "[18]; Homo sapiens, OVCAR-5, read-out: LC50", "result": 51.6, "unit": "µM"}, {"measurement": "Growth % of the Most Sensitive Cell Lines", "setting": "[18]; OVCAR-5, 1 dose 10 µM", "result": "−98.74", "unit": "%"}, {"measurement": "GI50", "setting": "[19]; A498", "result": 11.4, "unit": "µM"}, {"measurement": "IC (TGI)", "setting": "[19]; A498, 48 h, read-out: TGI", "result": 24.5, "unit": "µM"}, {"measurement": "CC50", "setting": "[19]; A498, read-out: LC50", "result": 52.7, "unit": "µM"}, {"measurement": "Growth % of the Most Sensitive Cell Lines", "setting": "[20]; 1 dose 10 µM", "result": "−95.35", "unit": "%"}, {"measurement": "GI50", "setting": "[20]; Homo sapiens", "result": 2930, "unit": "nM"}, {"measurement": "IC (TGI)", "setting": "[20]; [24]", "result": 9.56, "unit": "µM"}, {"measurement": "CC50", "setting": "[20]; Homo sapiens, read-out: LC50", "result": 33, "unit": "µM"}, {"measurement": "GI50", "setting": "[21]", "result": 3.34, "unit": "µM"}, {"measurement": "IC (TGI)", "setting": "[21]; 48 h, read-out: TGI", "result": 12, "unit": "µM"}, {"measurement": "CC50", "setting": "[21]; read-out: LC50", "result": 41.7, "unit": "µM"}, {"measurement": "GI50", "setting": "[22]; MCF7", "result": 3.14, "unit": "µM"}, {"measurement": "IC (TGI)", "setting": "[22]; MCF7, 48 h, read-out: TGI", "result": 14.5, "unit": "µM"}, {"measurement": "CC50", "setting": "[22]; MCF7, read-out: LC50", "result": 46.7, "unit": "µM"}, {"measurement": "GI50", "setting": "[23]", "result": 14.5, "unit": "µM"}, {"measurement": "IC (TGI)", "setting": "[23]; 48 h, read-out: TGI", "result": 29.3, "unit": "µM"}, {"measurement": "CC50", "setting": "[23]; read-out: LC50", "result": 59.2, "unit": "µM"}]}]}
